Experimental data from PubChem BioAssay (NCI).
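Interpolation was linear, between the two tested concentrations surrounding the appropriate level; five concentrations were tested over 48 hours in 96-well plates. The concentration for 50% growth inhibition is given as GI50. TGI: total growth inhibition.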

Experiments:
Assay in all cases: NCI-60 cell line screen, 48 h
SW-620 colon = test system: SW-620 colon
OVCAR-5 ovarian = test system: OVCAR-5 ovarian
HCC-2998 colon = test system: HCC-2998 colon
A549 NSCLC = test system: A549 NSCLC
SK-MEL-2 melanoma = test system: SK-MEL-2 melanoma
MOLT-4 leukemia = test system: MOLT-4 leukemia
SNB-19 CNS = test system: SNB-19 CNS
M14 melanoma = test system: M14 melanoma
UACC-257 melanoma = test system: UACC-257 melanoma
UACC-62 melanoma = test system: UACC-62 melanoma
HCT-116 colon = test system: HCT-116 colon
HT29 colon = test system: HT29 colon
NCI/ADR-RES ovarian = test system: NCI/ADR-RES ovarian
SF-295 CNS = test system: SF-295 CNS
BT-549 breast = test system: BT-549 breast
SF-268 CNS = test system: SF-268 CNS
786-0 renal = test system: 786-0 renal
HOP-62 NSCLC = test system: HOP-62 NSCLC
NCI-H460 lung = test system: NCI-H460 lung
MALME-3M melanoma = test system: MALME-3M melanoma
ACHN renal = test system: ACHN renal
RPMI-8226 leukemia = test system: RPMI-8226 leukemia
OVCAR-4 ovarian = test system: OVCAR-4 ovarian
PC-3 prostate = test system: PC-3 prostate
SNB-75 CNS = test system: SNB-75 CNS
LOX IMVI melanoma = test system: LOX IMVI melanoma
HS 578T breast = test system: HS 578T breast
RXF 393 renal = test system: RXF 393 renal
KM12 colon = test system: KM12 colon
COLO 205 colon = test system: COLO 205 colon
IGROV1 ovarian = test system: IGROV1 ovarian
HCT-15 colon = test system: HCT-15 colon
EKVX NSCLC = test system: EKVX NSCLC
HOP-92 NSCLC = test system: HOP-92 NSCLC
K-562 leukemia = test system: K-562 leukemia
UO-31 renal = test system: UO-31 renal
OVCAR-3 ovarian = test system: OVCAR-3 ovarian
SK-MEL-28 melanoma = test system: SK-MEL-28 melanoma
CAKI-1 renal = test system: CAKI-1 renal
NCI-H23 lung = test system: NCI-H23 lung
SK-MEL-5 melanoma = test system: SK-MEL-5 melanoma
MCF7 breast = test system: MCF7 breast
SN12C renal = test system: SN12C renal
MDA-MB-231 breast = test system: MDA-MB-231 breast
OVCAR-8 ovarian = test system: OVCAR-8 ovarian
SF-539 CNS = test system: SF-539 CNS
NCI-H226 lung = test system: NCI-H226 lung
SK-OV-3 ovarian = test system: SK-OV-3 ovarian
CCRF-CEM leukemia = test system: CCRF-CEM leukemia
DU-145 prostate = test system: DU-145 prostate
TK-10 renal = test system: TK-10 renal
NCI-H522 lung = test system: NCI-H522 lung
HL-60(TB) leukemia = test system: HL-60(TB) leukemia
T-47D breast = test system: T-47D breast
A498 renal = test system: A498 renal
U251 CNS = test system: U251 CNS
MDA-MB-435 = test system: MDA-MB-435

COc1ccc2c(c1)C(=O)/C(=C/c1cccc(OCC(=O)c3ccccc3)c1)CC2
GI50 (SW-620 colon): 4.88 µM | TGI (SW-620 colon): > 100 µM | GI50 (OVCAR-5 ovarian): > 100 µM | TGI (OVCAR-5 ovarian): > 100 µM | GI50 (HCC-2998 colon): 25.8 µM | TGI (HCC-2998 colon): > 100 µM | GI50 (A549 NSCLC): 36.6 µM | TGI (A549 NSCLC): > 100 µM | GI50 (SK-MEL-2 melanoma): 13.4 µM | TGI (SK-MEL-2 melanoma): > 100 µM | GI50 (MOLT-4 leukemia): 3.05 µM | TGI (MOLT-4 leukemia): 6.82 µM | GI50 (SNB-19 CNS): 39.6 µM | TGI (SNB-19 CNS): > 100 µM | GI50 (M14 melanoma): 16.7 µM | TGI (M14 melanoma): > 100 µM | GI50 (UACC-257 melanoma): 8.56 µM | TGI (UACC-257 melanoma): > 100 µM | GI50 (UACC-62 melanoma): 12.8 µM | TGI (UACC-62 melanoma): > 100 µM | GI50 (HCT-116 colon): 3.52 µM | TGI (HCT-116 colon): > 100 µM | GI50 (HT29 colon): 9.9 µM | TGI (HT29 colon): > 100 µM | GI50 (NCI/ADR-RES ovarian): 5.42 µM | TGI (NCI/ADR-RES ovarian): 93.9 µM | GI50 (SF-295 CNS): 10.3 µM | TGI (SF-295 CNS): > 100 µM | GI50 (BT-549 breast): 27.1 µM | TGI (BT-549 breast): > 100 µM | GI50 (SF-268 CNS): 45.2 µM | TGI (SF-268 CNS): > 100 µM | GI50 (786-0 renal): 54.4 µM | TGI (786-0 renal): > 100 µM | GI50 (HOP-62 NSCLC): 42.5 µM | TGI (HOP-62 NSCLC): > 100 µM | GI50 (NCI-H460 lung): 28.1 µM | TGI (NCI-H460 lung): > 100 µM | GI50 (MALME-3M melanoma): 28.5 µM | TGI (MALME-3M melanoma): > 100 µM | GI50 (ACHN renal): 31.8 µM | TGI (ACHN renal): > 100 µM | GI50 (RPMI-8226 leukemia): 2.31 µM | TGI (RPMI-8226 leukemia): 5.91 µM | GI50 (OVCAR-4 ovarian): 12.5 µM | TGI (OVCAR-4 ovarian): > 100 µM | GI50 (PC-3 prostate): 4.92 µM | TGI (PC-3 prostate): > 100 µM | GI50 (SNB-75 CNS): 42.4 µM | TGI (SNB-75 CNS): > 100 µM | GI50 (LOX IMVI melanoma): 9.61 µM | TGI (LOX IMVI melanoma): > 100 µM | GI50 (HS 578T breast): 43.7 µM | TGI (HS 578T breast): > 100 µM | GI50 (RXF 393 renal): 0.0502 µM | TGI (RXF 393 renal): 8.05 µM | GI50 (KM12 colon): 6.92 µM | TGI (KM12 colon): > 100 µM | GI50 (COLO 205 colon): 88.5 µM | TGI (COLO 205 colon): > 100 µM | GI50 (IGROV1 ovarian): 4.19 µM | TGI (IGROV1 ovarian): > 100 µM | GI50 (HCT-15 colon): 7.11 µM | TGI (HCT-15 colon): > 100 µM | GI50 (EKVX NSCLC): 13.9 µM | TGI (EKVX NSCLC): > 100 µM | TGI (HOP-92 NSCLC): 0.792 µM | GI50 (K-562 leukemia): 1.98 µM | TGI (K-562 leukemia): 5.82 µM | GI50 (UO-31 renal): 29.2 µM | TGI (UO-31 renal): > 100 µM | GI50 (OVCAR-3 ovarian): 18.3 µM | TGI (OVCAR-3 ovarian): > 100 µM | GI50 (SK-MEL-28 melanoma): 32.8 µM | TGI (SK-MEL-28 melanoma): > 100 µM | GI50 (CAKI-1 renal): 13 µM | TGI (CAKI-1 renal): > 100 µM | GI50 (NCI-H23 lung): 18.9 µM | TGI (NCI-H23 lung): > 100 µM | GI50 (SK-MEL-5 melanoma): 4.14 µM | TGI (SK-MEL-5 melanoma): 16.5 µM | GI50 (MCF7 breast): 4.53 µM | TGI (MCF7 breast): > 100 µM | GI50 (SN12C renal): 61 µM | TGI (SN12C renal): > 100 µM | GI50 (MDA-MB-231 breast): 69.9 µM | TGI (MDA-MB-231 breast): > 100 µM | GI50 (OVCAR-8 ovarian): 44.1 µM | TGI (OVCAR-8 ovarian): > 100 µM | GI50 (SF-539 CNS): 64.7 µM | TGI (SF-539 CNS): > 100 µM | GI50 (NCI-H226 lung): 28.6 µM | TGI (NCI-H226 lung): > 100 µM | GI50 (SK-OV-3 ovarian): 62.9 µM | TGI (SK-OV-3 ovarian): > 100 µM | GI50 (CCRF-CEM leukemia): 2.48 µM | TGI (CCRF-CEM leukemia): 7.67 µM | GI50 (DU-145 prostate): 32.6 µM | TGI (DU-145 prostate): > 100 µM | GI50 (TK-10 renal): > 100 µM | TGI (TK-10 renal): > 100 µM | GI50 (NCI-H522 lung): 8.84 µM | TGI (NCI-H522 lung): > 100 µM | GI50 (HL-60(TB) leukemia): 2.18 µM | TGI (HL-60(TB) leukemia): 5.16 µM | GI50 (T-47D breast): 7.05 µM | TGI (T-47D breast): > 100 µM | GI50 (A498 renal): 17.3 µM | TGI (A498 renal): 80.8 µM | GI50 (U251 CNS): 16.8 µM | TGI (U251 CNS): > 100 µM | GI50 (MDA-MB-435): 2.09 µM | TGI (MDA-MB-435): 10.5 µM

Cn1c(=O)c2[nH]c(N/N=N/c3nncs3)nc2n(C)c1=O
TGI (SW-620 colon): > 100 µM | TGI (OVCAR-5 ovarian): > 100 µM | TGI (HCC-2998 colon): > 100 µM | TGI (A549 NSCLC): > 100 µM | TGI (SK-MEL-2 melanoma): > 100 µM | TGI (MOLT-4 leukemia): > 100 µM | TGI (SNB-19 CNS): > 100 µM | TGI (M14 melanoma): > 100 µM | TGI (UACC-257 melanoma): > 100 µM | TGI (UACC-62 melanoma): > 100 µM | TGI (HCT-116 colon): > 100 µM | TGI (HT29 colon): > 100 µM | TGI (NCI/ADR-RES ovarian): > 100 µM | TGI (SF-295 CNS): > 100 µM | TGI (BT-549 breast): > 100 µM | TGI (SF-268 CNS): > 100 µM | TGI (786-0 renal): > 100 µM | TGI (HOP-62 NSCLC): > 100 µM | TGI (NCI-H460 lung): > 100 µM | TGI (ACHN renal): > 100 µM | TGI (OVCAR-4 ovarian): > 100 µM | TGI (PC-3 prostate): > 100 µM | TGI (LOX IMVI melanoma): > 100 µM | TGI (HS 578T breast): > 100 µM | TGI (RXF 393 renal): > 100 µM | TGI (KM12 colon): > 100 µM | TGI (COLO 205 colon): > 100 µM | TGI (IGROV1 ovarian): > 100 µM | TGI (HCT-15 colon): > 100 µM | TGI (EKVX NSCLC): > 100 µM | TGI (HOP-92 NSCLC): > 100 µM | TGI (K-562 leukemia): > 100 µM | TGI (UO-31 renal): > 100 µM | TGI (OVCAR-3 ovarian): > 100 µM | TGI (SK-MEL-28 melanoma): > 100 µM | TGI (CAKI-1 renal): > 100 µM | TGI (NCI-H23 lung): > 100 µM | TGI (SK-MEL-5 melanoma): > 100 µM | TGI (MCF7 breast): > 100 µM | TGI (SN12C renal): > 100 µM | TGI (MDA-MB-231 breast): > 100 µM | TGI (OVCAR-8 ovarian): > 100 µM | TGI (SF-539 CNS): > 100 µM | TGI (SK-OV-3 ovarian): > 100 µM | TGI (CCRF-CEM leukemia): > 100 µM | TGI (DU-145 prostate): > 100 µM | TGI (TK-10 renal): > 100 µM | TGI (T-47D breast): > 100 µM | TGI (A498 renal): > 100 µM | TGI (U251 CNS): > 100 µM | TGI (MDA-MB-435): > 100 µM
